Laboratory results as given in patent US20220105081A1 (priority 2020, published 2022).
Entries after “also recorded” stand apart in the source; their conditions may differ.

How the values were obtained:
morphine-dependent rats = assay: Opiate withdrawal signs in morphine-dependent rats
[1] = biological target: T1, ADRA1B (Alpha 1B adrenergic receptor) (Homo sapiens, UniProt P35368); assay: DiscoverX GPCR Max Panel screen; format: cell-based; details: VDM-001 at 30 μM; Assay Mode Antagonist
T1 sequence (P35368 1-520): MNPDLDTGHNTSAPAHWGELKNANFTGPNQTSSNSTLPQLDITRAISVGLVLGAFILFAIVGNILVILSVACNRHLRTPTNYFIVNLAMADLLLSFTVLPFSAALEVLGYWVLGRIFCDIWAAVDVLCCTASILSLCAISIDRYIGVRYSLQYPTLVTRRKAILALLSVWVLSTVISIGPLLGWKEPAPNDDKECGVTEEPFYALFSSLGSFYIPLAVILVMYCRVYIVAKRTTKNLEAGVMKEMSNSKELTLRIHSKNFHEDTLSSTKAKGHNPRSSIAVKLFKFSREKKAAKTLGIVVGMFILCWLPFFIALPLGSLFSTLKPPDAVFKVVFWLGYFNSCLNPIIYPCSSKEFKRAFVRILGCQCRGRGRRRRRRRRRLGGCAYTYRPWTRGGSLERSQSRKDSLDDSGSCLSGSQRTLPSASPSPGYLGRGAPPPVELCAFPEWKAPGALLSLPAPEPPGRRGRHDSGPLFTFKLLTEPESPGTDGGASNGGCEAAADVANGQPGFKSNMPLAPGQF
Method: (§1) In Example 2, DiscoverX platform screening (GPCR Max Panel) of VDM-001(composition of formula I)) at a concentration of 30 μM (the IC50 for VDM-001 from the GTPgS studies) was conducted to confirm the data from the GTPgS study and to determine broad selectivity of over 336 protein targets. MOR antagonism was confirmed (87% activity) along with other targets with >50%. Overall 13 proteins were engaged by VDM-001 with greater than 50% activity.

[2] = biological target: T2, ADRA2B (Alpha 2B adrenergic receptor) (Homo sapiens, UniProt P18089); assay: DiscoverX GPCR Max Panel screen; format: cell-based; details: VDM-001 at 30 μM; Assay Mode Antagonist
T2 sequence (P18089 1-450): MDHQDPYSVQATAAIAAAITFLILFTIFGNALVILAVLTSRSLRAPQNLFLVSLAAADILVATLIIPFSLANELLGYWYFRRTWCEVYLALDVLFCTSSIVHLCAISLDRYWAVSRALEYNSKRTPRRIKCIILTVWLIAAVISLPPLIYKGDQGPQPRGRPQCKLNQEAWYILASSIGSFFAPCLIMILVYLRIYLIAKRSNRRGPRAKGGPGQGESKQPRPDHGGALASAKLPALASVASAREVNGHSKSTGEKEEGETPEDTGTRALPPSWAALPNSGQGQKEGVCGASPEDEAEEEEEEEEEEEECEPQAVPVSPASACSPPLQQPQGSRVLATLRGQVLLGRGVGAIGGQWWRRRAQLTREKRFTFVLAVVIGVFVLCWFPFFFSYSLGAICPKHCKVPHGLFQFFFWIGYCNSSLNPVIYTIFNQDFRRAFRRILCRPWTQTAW
Method: as §1

[3] = biological target: T3, ADRA2C (Adrenergic receptor alpha 2C) (Homo sapiens, UniProt P18825); assay: DiscoverX GPCR Max Panel screen; format: cell-based; details: VDM-001 at 30 μM; Assay Mode Antagonist
T3 sequence (P18825 1-462): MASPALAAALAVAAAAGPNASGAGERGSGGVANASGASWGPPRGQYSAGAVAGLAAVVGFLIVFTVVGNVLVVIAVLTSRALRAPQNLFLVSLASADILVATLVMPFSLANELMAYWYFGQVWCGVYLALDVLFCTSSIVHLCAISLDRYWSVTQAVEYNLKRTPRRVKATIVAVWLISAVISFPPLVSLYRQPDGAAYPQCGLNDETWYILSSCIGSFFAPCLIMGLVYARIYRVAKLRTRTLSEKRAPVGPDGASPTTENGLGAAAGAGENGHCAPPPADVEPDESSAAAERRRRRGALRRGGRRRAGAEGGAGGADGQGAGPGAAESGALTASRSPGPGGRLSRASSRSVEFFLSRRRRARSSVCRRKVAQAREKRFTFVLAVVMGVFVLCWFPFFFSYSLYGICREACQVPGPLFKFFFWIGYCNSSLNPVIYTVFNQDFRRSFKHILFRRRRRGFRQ
Method: as §1

[4] = biological target: T4, CHRM1 (Cholinergic Muscarinic Receptor 1) (Homo sapiens, UniProt P11229); assay: DiscoverX GPCR Max Panel screen; format: cell-based; details: VDM-001 at 30 μM; Assay Mode Antagonist
T4 sequence (P11229 1-460): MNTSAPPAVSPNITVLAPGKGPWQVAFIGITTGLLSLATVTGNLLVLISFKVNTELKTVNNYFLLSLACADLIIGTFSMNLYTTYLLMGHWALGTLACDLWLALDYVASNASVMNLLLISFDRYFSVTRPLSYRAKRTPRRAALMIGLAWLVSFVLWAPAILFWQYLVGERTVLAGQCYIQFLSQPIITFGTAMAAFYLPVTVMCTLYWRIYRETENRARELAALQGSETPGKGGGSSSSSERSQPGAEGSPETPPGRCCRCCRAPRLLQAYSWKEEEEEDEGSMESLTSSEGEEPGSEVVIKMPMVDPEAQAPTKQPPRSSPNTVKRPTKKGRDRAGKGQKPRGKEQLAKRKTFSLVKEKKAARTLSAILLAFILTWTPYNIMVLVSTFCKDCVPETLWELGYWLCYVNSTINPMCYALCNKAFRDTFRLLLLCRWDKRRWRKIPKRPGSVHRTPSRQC
Method: as §1

[5] = biological target: CHRM3 (Cholinergic Muscarinic Receptor 3) (Homo sapiens, UniProt P20309); assay: DiscoverX GPCR Max Panel screen; format: cell-based; details: VDM-001 at 30 μM; Assay Mode Antagonist
Method: as §1

[6] = biological target: T5, CHRM4 (Cholinergic Muscarinic Receptor 4) (Homo sapiens, UniProt P08173); assay: DiscoverX GPCR Max Panel screen; format: cell-based; details: VDM-001 at 30 μM; Assay Mode Antagonist
T5 sequence (P08173 1-479): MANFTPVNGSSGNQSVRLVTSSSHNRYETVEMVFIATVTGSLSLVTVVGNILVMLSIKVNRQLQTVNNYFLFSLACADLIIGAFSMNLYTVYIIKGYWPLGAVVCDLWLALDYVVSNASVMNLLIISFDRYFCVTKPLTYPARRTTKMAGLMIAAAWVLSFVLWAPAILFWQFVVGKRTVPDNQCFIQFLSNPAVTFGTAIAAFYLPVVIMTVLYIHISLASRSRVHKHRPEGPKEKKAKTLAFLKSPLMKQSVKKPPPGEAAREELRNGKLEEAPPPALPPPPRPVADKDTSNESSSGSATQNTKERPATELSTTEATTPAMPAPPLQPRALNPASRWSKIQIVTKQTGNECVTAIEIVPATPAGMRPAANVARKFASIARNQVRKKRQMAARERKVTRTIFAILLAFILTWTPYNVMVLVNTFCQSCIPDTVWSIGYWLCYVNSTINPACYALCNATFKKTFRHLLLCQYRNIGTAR
Method: as §1

[7] = biological target: T6, CHRM5 (Cholinergic Muscarinic Receptor 5) (Homo sapiens, UniProt P08912); assay: DiscoverX GPCR Max Panel screen; format: cell-based; details: VDM-001 at 30 μM; Assay Mode Antagonist
T6 sequence (P08912 1-532): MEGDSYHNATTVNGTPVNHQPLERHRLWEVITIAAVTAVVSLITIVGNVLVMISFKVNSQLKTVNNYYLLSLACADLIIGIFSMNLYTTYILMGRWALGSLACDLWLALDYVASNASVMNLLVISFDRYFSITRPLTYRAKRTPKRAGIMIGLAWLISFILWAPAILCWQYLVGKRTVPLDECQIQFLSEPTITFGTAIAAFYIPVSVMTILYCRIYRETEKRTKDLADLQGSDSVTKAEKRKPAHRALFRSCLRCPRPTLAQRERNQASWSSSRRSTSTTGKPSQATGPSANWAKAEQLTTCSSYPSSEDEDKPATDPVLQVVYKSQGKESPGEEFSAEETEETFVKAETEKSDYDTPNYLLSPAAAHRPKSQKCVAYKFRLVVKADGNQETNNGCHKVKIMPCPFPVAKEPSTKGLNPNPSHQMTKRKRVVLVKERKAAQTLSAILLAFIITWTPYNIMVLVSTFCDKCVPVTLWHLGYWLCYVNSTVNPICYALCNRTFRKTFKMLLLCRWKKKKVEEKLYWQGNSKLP
Method: as §1

[8] = biological target: T7, DRD4 (Dopamine D4 receptor) (Homo sapiens, UniProt P21917); assay: DiscoverX GPCR Max Panel screen; format: cell-based; details: VDM-001 at 30 μM; Assay Mode Antagonist
T7 sequence (P21917 1-419): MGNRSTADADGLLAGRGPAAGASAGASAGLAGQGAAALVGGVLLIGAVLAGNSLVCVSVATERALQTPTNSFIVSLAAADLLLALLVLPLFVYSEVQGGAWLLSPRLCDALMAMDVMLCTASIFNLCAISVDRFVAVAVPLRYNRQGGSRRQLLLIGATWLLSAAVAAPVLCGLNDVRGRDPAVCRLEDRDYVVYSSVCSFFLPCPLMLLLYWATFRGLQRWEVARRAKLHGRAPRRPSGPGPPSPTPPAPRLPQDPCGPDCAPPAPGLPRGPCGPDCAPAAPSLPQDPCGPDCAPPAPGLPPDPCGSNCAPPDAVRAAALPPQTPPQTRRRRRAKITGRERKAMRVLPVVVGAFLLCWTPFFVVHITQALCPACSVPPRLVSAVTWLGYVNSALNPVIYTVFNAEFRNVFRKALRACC
Method: as §1

[9] = biological target: HRH1 (Histamine H1 receptor) (Homo sapiens, UniProt P35367); assay: DiscoverX GPCR Max Panel screen; format: cell-based; details: VDM-001 at 30 μM; Assay Mode Antagonist
Method: as §1

[10] = biological target: T8, HTR1A (Serotonin 1A receptor) (Homo sapiens, UniProt P08908); assay: DiscoverX GPCR Max Panel screen; format: cell-based; details: VDM-001 at 30 μM; Assay Mode Antagonist
T8 sequence (P08908 1-422): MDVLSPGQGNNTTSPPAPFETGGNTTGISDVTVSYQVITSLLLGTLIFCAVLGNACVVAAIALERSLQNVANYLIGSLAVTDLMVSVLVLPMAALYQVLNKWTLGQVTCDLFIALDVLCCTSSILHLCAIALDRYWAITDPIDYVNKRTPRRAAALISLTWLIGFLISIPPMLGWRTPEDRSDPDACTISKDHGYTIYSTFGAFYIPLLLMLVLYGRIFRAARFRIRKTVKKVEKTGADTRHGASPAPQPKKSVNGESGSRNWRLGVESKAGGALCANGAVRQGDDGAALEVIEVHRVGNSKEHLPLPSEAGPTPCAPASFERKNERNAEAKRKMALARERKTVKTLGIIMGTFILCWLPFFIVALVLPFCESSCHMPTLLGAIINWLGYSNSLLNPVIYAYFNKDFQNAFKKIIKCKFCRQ
Method: as §1

[11] = biological target: HTR1B (Serotonin 1B receptor) (Homo sapiens, UniProt P28222); assay: DiscoverX GPCR Max Panel screen; format: cell-based; details: VDM-001 at 30 μM; Assay Mode Antagonist
Method: as §1

[12] = biological target: OPRL1 (Nociceptin 1 receptor) (Homo sapiens, UniProt P41146); assay: DiscoverX GPCR Max Panel screen; format: cell-based; details: VDM-001 at 30 μM; Assay Mode Antagonist
Method: as §1

[13] = biological target: OPRM1 (Mu Opiate receptor) (Homo sapiens, UniProt P35372); assay: DiscoverX GPCR Max Panel screen; format: cell-based; details: VDM-001 at 30 μM; Assay Mode Antagonist
Method: as §1

MOR = MOR (Homo sapiens, UniProt P35372); assay: GTPgS studies; format: biochemical; details: read-out: IC50 from the GTPgS studies
mu opioid receptors = mu opioid receptors (Homo sapiens, UniProt P35372); assay: Receptor activity profile (stated)
kappa receptors = kappa receptors (Homo sapiens, UniProt P41145); assay: Receptor activity profile (stated)
ORL1 receptors = ORL1 receptors (Homo sapiens, UniProt P41146); assay: Receptor activity profile (stated)
Sigma sites = assay: Receptor activity profile (stated)

Chain of OPRM1 (Mu Opiate receptor) (P35372 whole entry): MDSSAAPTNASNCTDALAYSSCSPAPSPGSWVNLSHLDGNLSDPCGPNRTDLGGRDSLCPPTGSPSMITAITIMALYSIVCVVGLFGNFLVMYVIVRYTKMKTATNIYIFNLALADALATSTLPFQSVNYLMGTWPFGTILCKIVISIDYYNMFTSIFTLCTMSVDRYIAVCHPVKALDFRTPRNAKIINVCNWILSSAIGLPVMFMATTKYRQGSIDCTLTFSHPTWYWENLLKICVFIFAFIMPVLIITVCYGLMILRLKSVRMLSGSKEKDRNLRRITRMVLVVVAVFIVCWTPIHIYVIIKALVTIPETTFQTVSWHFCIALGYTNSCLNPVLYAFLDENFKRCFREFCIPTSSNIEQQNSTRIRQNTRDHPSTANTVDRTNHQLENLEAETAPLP
Chain of OPRL1 (Nociceptin 1 receptor) (P41146 whole entry): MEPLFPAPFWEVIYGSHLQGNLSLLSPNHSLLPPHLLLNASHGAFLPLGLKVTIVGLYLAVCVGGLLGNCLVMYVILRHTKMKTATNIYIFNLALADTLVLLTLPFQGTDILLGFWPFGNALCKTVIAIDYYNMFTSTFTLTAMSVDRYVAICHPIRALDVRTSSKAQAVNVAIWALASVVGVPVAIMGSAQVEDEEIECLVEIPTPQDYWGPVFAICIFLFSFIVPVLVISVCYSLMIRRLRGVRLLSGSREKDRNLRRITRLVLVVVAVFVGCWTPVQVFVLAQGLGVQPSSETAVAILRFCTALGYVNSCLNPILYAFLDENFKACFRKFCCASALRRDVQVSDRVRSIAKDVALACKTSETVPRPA
Chain of ORL1 receptors (P41146 whole entry): as above
Chain of MOR (P35372 whole entry): as the sequence (P35372 whole entry) above
Chain of mu opioid receptors (P35372 whole entry): as above
Chain of HRH1 (Histamine H1 receptor) (P35367 whole entry): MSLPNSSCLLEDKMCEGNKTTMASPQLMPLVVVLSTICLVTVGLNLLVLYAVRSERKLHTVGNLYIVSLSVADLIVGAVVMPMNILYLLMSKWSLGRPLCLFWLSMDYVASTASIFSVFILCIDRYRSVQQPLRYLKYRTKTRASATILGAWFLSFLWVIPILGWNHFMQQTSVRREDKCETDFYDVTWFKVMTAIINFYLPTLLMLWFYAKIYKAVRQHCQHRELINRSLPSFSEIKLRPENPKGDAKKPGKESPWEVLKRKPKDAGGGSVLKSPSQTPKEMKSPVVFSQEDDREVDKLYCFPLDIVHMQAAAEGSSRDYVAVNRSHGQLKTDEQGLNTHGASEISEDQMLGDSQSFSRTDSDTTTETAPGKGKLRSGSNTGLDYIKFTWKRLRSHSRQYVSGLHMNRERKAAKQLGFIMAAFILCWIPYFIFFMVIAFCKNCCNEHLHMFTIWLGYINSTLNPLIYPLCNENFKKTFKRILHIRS
Chain of kappa receptors (P41145 whole entry): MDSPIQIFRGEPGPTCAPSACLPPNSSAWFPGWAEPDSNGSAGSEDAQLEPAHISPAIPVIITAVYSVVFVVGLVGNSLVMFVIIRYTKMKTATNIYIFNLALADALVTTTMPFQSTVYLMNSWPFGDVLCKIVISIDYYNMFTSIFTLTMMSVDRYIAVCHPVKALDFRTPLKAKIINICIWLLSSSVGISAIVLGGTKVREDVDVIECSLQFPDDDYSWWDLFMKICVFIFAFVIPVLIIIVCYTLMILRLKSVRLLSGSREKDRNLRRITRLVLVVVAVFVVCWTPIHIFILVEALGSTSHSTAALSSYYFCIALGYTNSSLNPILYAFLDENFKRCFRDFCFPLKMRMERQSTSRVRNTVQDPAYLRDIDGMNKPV
Chain of HTR1B (Serotonin 1B receptor) (P28222 whole entry): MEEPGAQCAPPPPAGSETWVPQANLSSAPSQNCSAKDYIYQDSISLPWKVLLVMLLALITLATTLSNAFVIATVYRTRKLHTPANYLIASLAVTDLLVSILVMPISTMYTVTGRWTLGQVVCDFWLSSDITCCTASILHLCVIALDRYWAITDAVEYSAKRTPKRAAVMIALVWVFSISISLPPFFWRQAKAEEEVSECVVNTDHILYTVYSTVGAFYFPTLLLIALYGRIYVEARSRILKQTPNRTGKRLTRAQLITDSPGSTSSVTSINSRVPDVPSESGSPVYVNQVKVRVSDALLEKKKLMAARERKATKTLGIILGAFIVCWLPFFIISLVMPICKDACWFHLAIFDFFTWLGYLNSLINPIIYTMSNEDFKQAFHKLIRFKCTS
Chain of CHRM3 (Cholinergic Muscarinic Receptor 3) (P20309 whole entry): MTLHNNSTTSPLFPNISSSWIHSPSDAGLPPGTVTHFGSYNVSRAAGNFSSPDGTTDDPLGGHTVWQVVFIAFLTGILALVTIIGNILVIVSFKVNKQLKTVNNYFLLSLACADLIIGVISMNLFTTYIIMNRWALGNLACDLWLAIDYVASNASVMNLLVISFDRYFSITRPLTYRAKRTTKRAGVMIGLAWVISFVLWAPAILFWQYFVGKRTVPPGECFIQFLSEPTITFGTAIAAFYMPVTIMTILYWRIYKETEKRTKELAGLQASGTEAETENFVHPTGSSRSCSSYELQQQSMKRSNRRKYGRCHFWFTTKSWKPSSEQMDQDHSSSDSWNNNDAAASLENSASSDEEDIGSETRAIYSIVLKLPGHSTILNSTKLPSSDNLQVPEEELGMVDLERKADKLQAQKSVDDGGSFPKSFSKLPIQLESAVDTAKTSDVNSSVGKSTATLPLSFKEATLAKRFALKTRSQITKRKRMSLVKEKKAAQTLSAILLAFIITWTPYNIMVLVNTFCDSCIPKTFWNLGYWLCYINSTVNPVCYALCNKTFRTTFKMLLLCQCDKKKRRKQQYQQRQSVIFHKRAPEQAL

C=CCN1CC[C@]23c4c5ccc(O)c4O[C@H]2C(=O)CC[C@@]3(O)[C@H]1C5 [naloxone, 17-allyl-4,5a-epoxy-3,14-dihydroxymorphinan-6-one, reference compound] was tested, and the incidence of diarrhea (morphine-dependent rats; 1 mg/kg) was “over 80%”, the opiate withdrawal signs (morphine-dependent rats; 1 mg/kg) was “large opiate withdrawal signs” and the opiate withdrawal signs (morphine-dependent rats; 1 mg/kg, listed as Naloxone) was “precipitated a large number of withdrawal signs”.
CCC(=O)NC1CC(C)N(CCc2ccccc2)CC1C (stereo not drawn) [VDM-001, N-[2,5-dimethyl-1-(2-phenylethyl)piperidin-4-yl]propanamide] gave an Activity [1] of 84%, an Activity [2] of 98% and an Activity [3] of 104%. It also gave an Activity [4] of 72%, an Activity [5] of 85% and an Activity [6] of 72%. For the same molecule, the Activity [7] was 74%, the Activity [8] was 75% and the Activity [9] was 99%. It also gave an Activity [10] of 73%, an Activity [11] of 60% and an Activity [12] of 54%. The Activity [13] was 87%, the IC50 (MOR) was 30 µM and the “mode of action at mu opioid receptors” value (mu opioid receptors) was “partial agonist”. The “mode of action at kappa receptors” value (kappa receptors) was “antagonist”, the “mode of action at ORL1 receptors” value (ORL1 receptors) was “antagonist” and the “mode of action at Sigma sites” value (Sigma sites) was “either agonist or antagonist activity”. For the same molecule, the incidence of diarrhea (morphine-dependent rats; 20 mg/kg, equal to the control) was “around 1%”, the incidence of diarrhea (morphine-dependent rats; 40 mg/kg) was “less than 20%” and the opiate withdrawal signs (morphine-dependent rats; 20 or 40 mg/kg) was “minimal, if any, opiate withdrawal signs; also recorded: did not precipitate morphine withdrawal symptoms; also recorded: did not show significant withdrawal signs”.
